Consider 13 compounds from patent publication US10842795B1, “Chemosensitization of resistant Pseudomonas aeruginosa by synthetically related compounds” (King Abdulaziz University, priority 2020, dated 2020).

Data set [1] deals with Pseudomona aeruginosa ATCC 27853. As to the kind of experiment: Cup diffusion (agar plate diffusion) assay of ciprofloxacin chemosensitization. The format is cell-based, Pseudomonas aeruginosa. Conditions: 200 μM compound with CPX, MDR-Pa, in words. The method, then: ^1H NMR (400 MHz, DMSO-d6) δ 9.88 (s, 1H), 7.66 (dd, J=1.51, 7.78 Hz, 2H), 7.53-7.62 (m, 3H), 7.43-7.51 (m, 3H), 7.37-7.43 (m, 2H), 7.29-7.37 (m, 1H), 7.07-7.12 (m, 2H), 6.95-7.02 (m, 1H), 6.87 (d, J=15.81 Hz, 1H), 4.19 (q, J=7.11 Hz, 2H), 1.25 (t, J=7.15 Hz, 3H). Biological Screening Efflux Pump Inhibition (EPI) Screening Methodology: Bacterial isolate. Pseudomona aeruginosa ATCC 27853 stored at −70° C. in Trypticase soy broth supplemented with 10% glycerol was recovered for testing. Tests performed. Cup diffusion assay was performed to assess interaction between Ciprofloxacin CPX and 24 compounds. CPX minimum inhibitory concentrations (MICs) were determined alone and in the presence of each compound at concentrations ranging from 2000 to 62.5 μg/mL against P. aeruginosa. A fixed concentration of 200 μM of each compound was selected for testing.
Briefly, Petri dishes (90 mm) were filled with 25 mL Muller-Hinton agar containing 1 mL bacterial culture (1×10^6 CFU/mL) and 200 μM of each compound. The strains were inoculated separately. Six holes (5 mm in diameter) were made in the seeded agar plates. The holes were then filled with 20 μL of each concentration of CPX, plate with CPX only was served as control. Dishes were then incubated for 24 h at 37° C. The MIC was recorded as the lowest concentration that inhibits the growth of the bacterial strains. […] All assays were performed in triplicate and MIC's values are given in μg/mL. The inhibition zone was measured using a caliper.
The agar plate diffusion test (Zou, He et al. 2019) was utilized to qualitatively evaluate the ciprofloxacin killing effect on MDR-Pa in absence (control) and in presence of our designed efflux pump inhibitors.

The subject of the next data set is MDR-Pa. As to the kind of experiment: Pseudomonas aeruginosa liquid killing assay on C. elegans (chemosensitization of MDR-Pa). The class given is in vivo. The conditions noted are these: for Survival x/50 in presence of CAB compounds at 25 μM: 25 μM CAB compound + 100 μg/mL CPX; for Survival x/50 in presence of CAB compounds at 50 μM: 50 μM CAB compound + 100 μg/mL CPX; for Survival x/50 in presence of CAB compounds at 100 μM: 100 μM CAB compound + 100 μg/mL CPX; for Survival x/50 in presence of CAB compounds at 200 μM: 200 μM CAB compound + 100 μg/mL CPX; for Activity in C. elegans model (survival and motility), in words: MDR-Pa infected C. elegans with CPX; for C. elegans + 100 μg/mL CPX) MIC: MDR-Pa infected C. elegans, in presence of 100 μg/mL CPX. How it is done:
In vivo EPI activity of compounds that illustrated an MIC against P. aeruginosa. ATCC 27853 were tested on C. elegans using the liquid killing assay (LKA). Briefly, eggs of C. elegans were hatched on lawns of E. coli OP50 on nematode growth medium agar. Worms were grown to L4 stage by incubation at 25° C. for 48 h. Worms were washed off the plate with M9 buffer, deposited onto lawns of E. coli OP50 or P. aeruginosa. ATCC 27853 and the plates were incubated at 25° C. for 16 h. OP50-fed or P. aeruginosa-infected worms were washed from the plate with M9 buffer, allowed to settle to bottom of Eppendorf tubes, and rinsed with M9 buffer. The M9 was then removed and worms were resuspended in 5 mL liquid killing medium (80% M9 and 20% nematode growth medium (NGMII)) and 95 μL aliquots with approximately 50 worms were added to the wells of 96-microtiter plates with or without test compounds at the indicated concentration ranges (starting from 200 μM) in presence of sub-MIC concentration of CPX (100 μg/mL). As a control, worms treated without test compound contained an equivalent amount of DMSO in the assay medium. Plates were scored for live worms at the time of inoculation and incubated at 37° C. for 24 h. Using a dissecting microscope, worms were considered dead if they appeared straight, and alive if they appeared S-shaped and were moving.
C. elegans is a very efficient whole organism test. The worm develops several reliable disease pathways and can be recruited to measure therapeutic activities of compounds. The technique bears several advantages such as low cost, there is no need for special growth or assay conditions (c.f. animal house and expensive caring for in vivo test on mammalians such as rats) (Kaletta and Hengartner 2006) and there are no ethical issues with consuming animals. In our particular assay, C. elegans can be infected and killed by Pa, and therefore, can be used for identifying compounds that help to protect the worm from pathogenic bacteria (Ewbank and Zugasti 2011).
We used the assay to measure the CAB N-alkyl derivatives CAB-30, CAB-35, CAB-36, CAB-37, CAB-38, CAB-40, CAB-41, CAB-42 and CAB-43 ability to protect C. elegans against MDR-Pa.

Data set [2] concerns the target T1, Pgp (Homo sapiens, UniProt P08183).
T1 construct: highly resistant cells K562 Adr500 which keep R123 outside the cancer cells; endogenous in cells; host or cells: K562 Adr500 (adriamycin-resistant human leukemia K562 cells)
Conditions: reported earlier (El-Araby, Omar et al. 2017); cited from earlier work.

A short description of data set [3]: Solubility (qualitative statement). The class given is physicochemical. The conditions noted are these: in words.
For data set [4], the target named is T1, Pgp. As to the kind of experiment: Rhodamine123 (R123) efflux assay in K562 Adr500 cells. The class given is cell-based. Conditions: in words. The method, then:
The cells (10^5) were counted and suspended in 1 ml RPMI medium. The appropriate CAB derivative (0.5 μM) was added to the medium alongside 1, 5 or 10 μM WYE-354, or 100 μM Verapamil as control inhibitors and incubated for 60 min at 37° C. Upon dye uptake, the cells were pelleted by centrifugation at 250×g for 5 min at 4° C. in a cold centrifuge. The harvested cells were washed twice with 1× ice-cold PBS and resuspended in 1 ml RPMI with the inhibitors alone, and reincubated for an additional 60 min at 37° C. to allow the efflux of R123. The cells were subsequently washed twice with ice-cold PBS and analyzed immediately on a BD FACSAria III. A minimum of 5,000 events were recorded for analysis.
We studied the selectivity of CAB-38 by testing its Pgp inhibition (human efflux protein) activities. This assay was performed by measuring the retention of Rhodamine123 (R123) dye (substrate of Pgp) in human leukemia cell lines K562. The negative control of experiment is composed of highly resistant cells K562 Adr500 which keep R123 outside the cancer cells (FIG. 3A). The positive control is performed by repeating the same experiment after incubation of cells with everolimus sub-cytotoxic dose, a powerful Pgp inhibitor (FIG. 3B). The test compound was incubated with K562 Adr500 and then added R123 dye. […]

Entries after “also recorded” stand apart in the source; their conditions may differ.

T1 sequence (P08183 whole entry): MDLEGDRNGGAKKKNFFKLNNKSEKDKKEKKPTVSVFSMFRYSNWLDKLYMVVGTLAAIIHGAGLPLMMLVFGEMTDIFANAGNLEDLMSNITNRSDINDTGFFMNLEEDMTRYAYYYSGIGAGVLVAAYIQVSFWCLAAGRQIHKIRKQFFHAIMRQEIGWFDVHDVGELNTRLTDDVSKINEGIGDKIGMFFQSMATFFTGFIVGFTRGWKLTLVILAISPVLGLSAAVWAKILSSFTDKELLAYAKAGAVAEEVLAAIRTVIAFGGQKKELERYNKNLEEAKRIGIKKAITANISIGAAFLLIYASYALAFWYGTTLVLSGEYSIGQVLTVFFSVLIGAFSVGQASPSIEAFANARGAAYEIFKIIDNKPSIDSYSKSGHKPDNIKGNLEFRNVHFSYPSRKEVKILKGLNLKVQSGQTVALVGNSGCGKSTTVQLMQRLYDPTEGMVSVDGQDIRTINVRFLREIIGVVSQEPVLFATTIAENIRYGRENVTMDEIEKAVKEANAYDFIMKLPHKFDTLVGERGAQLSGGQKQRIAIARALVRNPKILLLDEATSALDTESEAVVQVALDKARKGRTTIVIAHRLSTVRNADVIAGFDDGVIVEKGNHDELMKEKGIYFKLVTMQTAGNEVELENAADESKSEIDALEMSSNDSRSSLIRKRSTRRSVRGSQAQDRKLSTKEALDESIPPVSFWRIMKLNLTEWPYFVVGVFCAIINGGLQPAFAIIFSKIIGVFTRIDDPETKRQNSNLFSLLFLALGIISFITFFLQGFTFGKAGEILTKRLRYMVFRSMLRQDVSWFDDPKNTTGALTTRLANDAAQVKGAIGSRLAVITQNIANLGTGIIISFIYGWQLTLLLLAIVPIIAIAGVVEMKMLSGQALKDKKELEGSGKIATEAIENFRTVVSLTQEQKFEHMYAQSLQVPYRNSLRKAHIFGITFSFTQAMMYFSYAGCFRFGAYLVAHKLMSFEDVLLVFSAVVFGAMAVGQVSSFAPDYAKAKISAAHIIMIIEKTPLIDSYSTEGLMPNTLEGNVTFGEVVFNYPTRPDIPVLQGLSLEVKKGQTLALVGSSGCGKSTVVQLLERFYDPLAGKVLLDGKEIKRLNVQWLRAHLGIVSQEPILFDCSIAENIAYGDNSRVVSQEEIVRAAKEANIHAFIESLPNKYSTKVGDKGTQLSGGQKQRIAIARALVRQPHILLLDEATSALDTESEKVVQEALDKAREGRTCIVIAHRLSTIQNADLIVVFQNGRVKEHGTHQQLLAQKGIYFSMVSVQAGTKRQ

Take `CCOC(=O)/C(=C/C=C/c1ccccc1)NC(=O)C=Cc1ccccc1` [CAB-21, Ethyl (2Z,4E)-2-Cinnamamido-5-Phenylpenta-2,4-Dienoate]: the “Enhancement of CPX antibiotic activity (chemosensitization, inhibition zone)” value in data set [1] is given as “weak activities”.
Take `CCCNC(=O)/C(=C/C=C/c1ccccc1)NC(=O)/C=C/c1ccccc1` [CAB-30]: in data set [1], the “Enhancement of CPX antibiotic activity (chemosensitization, inhibition zone)” value was “highest chemosensitization; also recorded: most potent”. The “Survival x/50 in presence of CAB compounds at 1.562 μM” value in the data set on MDR-Pa (1.562 μM CAB compound + 100 μg/mL CPX) is listed as 20 x/50. Further, the “Survival x/50 in presence of CAB compounds at 3.125 μM” value with MDR-Pa (3.125 μM CAB compound + 100 μg/mL CPX) amounted to 20 x/50. The “Survival x/50 in presence of CAB compounds at 6.25 μM” value in the data set with MDR-Pa (6.25 μM CAB compound + 100 μg/mL CPX) came to 20 x/50. For the same compound, the “Survival x/50 in presence of CAB compounds at 12.5 μM” value with MDR-Pa (12.5 μM CAB compound + 100 μg/mL CPX) is reported as 20 x/50. In the data set on MDR-Pa, the “Survival x/50 in presence of CAB compounds at 25 μM” value amounted to 40 x/50, the “Survival x/50 in presence of CAB compounds at 50 μM” value turned out to be 40 x/50, the “Survival x/50 in presence of CAB compounds at 100 μM” value is given as 40 x/50 and the “Survival x/50 in presence of CAB compounds at 200 μM” value is reported as 50 x/50. Besides, in the data set on MDR-Pa, the “Activity in C. elegans model (survival and motility), in words” value is given as “highly potent”; the “C. elegans + 100 μg/mL CPX) MIC” value is 1.56 µM. Also, the Pgp inhibition activities result on Pgp [2] was “undesired Pgp inhibition activities”.
With `COc1ccc(NC(=O)/C(=C/C=C/c2ccccc2)NC(=O)C=Cc2ccccc2)cc1` [CAB-32, (2Z,4E)-2-cinnamamido-N-(4-methoxyphenyl)-5-phenylpenta-2,4-dienamide], the “Enhancement of CPX antibiotic activity (chemosensitization, inhibition zone)” value in data set [1] is “weak activities”.
Take `CNC(=O)/C(=C/C=C/c1ccccc1)NC(=O)C=Cc1ccccc1` [CAB-35, (2Z,4E)-2-cinnamamido-N-methyl-5-phenylpenta-2,4-dienamide]: in the data set with MDR-Pa, the “Survival x/50 in presence of CAB compounds at 200 μM” value was 15 x/50 and the “C. elegans + 100 μg/mL CPX) MIC” value turned out to be 200 µM.
`N#Cc1cccc(NC(=O)/C(=C/C=C/c2ccccc2)NC(=O)C=Cc2ccccc2)c1` [CAB-36, (2Z,4E)-2-cinnamamido-N-(3-cyanophenyl)-5-phenylpenta-2,4-dienamide]: the Solubility result in data set [3] is on record as “poor solubility”. Also, in data set [1], the “Enhancement of CPX antibiotic activity (chemosensitization, inhibition zone)” value is “moderate chemosensitization activities”. In the data set on MDR-Pa, the “C. elegans + 100 μg/mL CPX) MIC” value is listed as “Died”.
For the compound `O=C(C=Cc1ccccc1)N/C(=C\C=C\c1ccccc1)C(=O)NCCO` [CAB-37, (2Z,4E)-2-cinnamamido-N-(2-hydroxyethyl)-5-phenylpenta-2,4-dienamide], in the data set on MDR-Pa, the “Activity in C. elegans model (survival and motility), in words” value was “did not show any activity”; the “C. elegans + 100 μg/mL CPX) MIC” value was found to be 50 µM.
As for `O=C(C=Cc1ccccc1)N/C(=C\C=C\c1ccccc1)C(=O)N1CCOCC1` [CAB-38, N-((2Z,4E)-1-morpholino-1-oxo-5-phenylpenta-2,4-dien-2-yl)cinnamamide], the Solubility entry in data set [3] is on record as “improved solubility”. Besides, the “Pgp inhibition (retention of R123 dye in cells)” value at Pgp [4] is “poor inhibitor of Pgp; also recorded: no inhibition observed; also recorded: not retention of R123 dye”. In addition, in the data set with MDR-Pa, the “Survival x/50 in presence of CAB compounds at 25 μM” value came to 3 x/50, the “Survival x/50 in presence of CAB compounds at 50 μM” value turned out to be 5 x/50, the “Survival x/50 in presence of CAB compounds at 100 μM” value worked out at 10 x/50 and the “Survival x/50 in presence of CAB compounds at 200 μM” value stood at 40 x/50. Besides, in the data set on MDR-Pa, the “C. elegans + 100 μg/mL CPX) MIC” value came to 25 µM.
As for `COc1cccc(NC(=O)/C(=C/C=C/c2ccccc2)NC(=O)C=Cc2ccccc2)c1` [CAB-40, (2Z,4E)-2-cinnamamido-N-(3-methoxyphenyl)-5-phenylpenta-2,4-dienamide], in data set [1], the “Enhancement of CPX antibiotic activity (chemosensitization, inhibition zone)” value is given as “weak activities”. In addition, in the data set with MDR-Pa, the “Survival x/50 in presence of CAB compounds at 200 μM” value stood at 25 x/50 and the “C. elegans + 100 μg/mL CPX) MIC” value came to 200 µM.
As to `O=C(C=Cc1ccccc1)N/C(=C\C=C\c1ccccc1)C(=O)N1CCCC1` [CAB-41, N-((2Z,4E)-1-oxo-5-phenyl-1-(pyrrolidin-1-yl)penta-2,4-dien-2-yl)cinnamamide], in the data set on MDR-Pa, the “Survival x/50 in presence of CAB compounds at 50 μM” value was found to be 5 x/50, the “Survival x/50 in presence of CAB compounds at 100 μM” value stood at 7 x/50, the “Survival x/50 in presence of CAB compounds at 200 μM” value is on record as 25 x/50 and the “C. elegans + 100 μg/mL CPX) MIC” value is 50 µM.
As to `CCCCNC(=O)/C(=C/C=C/c1ccccc1)NC(=O)C=Cc1ccccc1` [CAB-42, (2Z,4E)-N-butyl-2-cinnamamido-5-phenylpenta-2,4-dienamide], in the data set with MDR-Pa, the “Survival x/50 in presence of CAB compounds at 100 μM” value was 5 x/50, the “Survival x/50 in presence of CAB compounds at 200 μM” value came to 45 x/50 and the “C. elegans + 100 μg/mL CPX) MIC” value is 100 µM.
On to `CC(C)NC(=O)/C(=C/C=C/c1ccccc1)NC(=O)C=Cc1ccccc1` [CAB-43, (2Z,4E)-2-cinnamamido-N-isopropyl-5-phenylpenta-2,4-dienamide], for which, in the data set on MDR-Pa, the “C. elegans + 100 μg/mL CPX) MIC” value is “Died”.
Regarding `O=C(O)c1cn(C2CC2)c2cc(N3CCNCC3)c(F)cc2c1=O` [Control (Cipro Only), ciprofloxacin, reference compound], the “C. elegans + 100 μg/mL CPX) MIC” value in the data set on MDR-Pa is listed as “Died”.
As to `CO[C@H]1C[C@@H]2CC[C@@H](C)[C@@](O)(O2)C(=O)C(=O)N2CCCC[C@H]2C(=O)O[C@H]([C@H](C)C[C@@H]2CC[C@@H](OCCO)[C@H](OC)C2)CC(=O)[C@H](C)/C=C(\C)[C@@H](O)[C@@H](OC)C(=O)[C@H](C)C[C@H](C)/C=C/C=C/C=C/1C` [everolimus, reference compound], at Pgp [4], the “Pgp inhibition (retention of R123 dye in cells)” value is “large increase of R123 dye”.
